Holding throughout (experiment): growth of human tumour cells (NCI), 48 h
Assay [1] concerns U-251.
Assay [2] concerns T47D.
The subject of assay [3] is SK-MEL-28.
Assay [4] deals with UACC-62.
In assay [5] the test system is K562.
The subject of assay [6] is NCI/ADR-RES.
Assay [7] has as its system OVCAR-8.
The subject of assay [8] is HCT-15.
For assay [9], the system named is CCRF-CEM.
The test system of assay [10] is SW-620.
Assay [11] deals with A498.
Assay [12] relates to OVCAR-5.
Assay [13] concerns HOP-92.
Assay [14] concerns HCC 2998.
For assay [15], the system named is HL-60.
Assay [16] deals with EKVX.
Assay [17] deals with KM12.
The subject of assay [18] is MDA-MB-435.
The subject of assay [19] is Hs-578T.
Assay [20] deals with NCI-H522.

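Five compound concentrations were applied to cells in 96-well plates for 48 hours; endpoints were derived by simple linear interpolation of the resulting dose-response curve. Here, GI50 denotes the concentration required for 50% inhibition of growth.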 Activity calls are given as the source filed them. Cut-off read from the data, not from the text of the source: active = GI50 up to about 1.1 µM and inactive = higher.

On to `CC(=O)OCc1cc(=O)n2c([nH]c3ccccc32)c1C#N`, for which the GI50 is 34 µM (inactive) in assay [1]; 78.5 µM (inactive) in assay [2]; 82.6 µM (inactive) in assay [3]; 59.7 µM (inactive) in assay [4]; 65.9 µM (inactive) in assay [5]; > 100 µM (inactive) in assay [6]. In addition, the GI50 in assay [7] is > 100 µM (inactive); in assay [8], 21.8 µM; in assay [9], 19.3 µM (inactive); in assay [10] it was 96.6 µM (inactive); in [11] it was 69.2 µM (inactive); in assay [12], > 100 µM (inactive). Besides, the GI50 was 84.3 µM (inactive) in assay [13], 42.6 µM (inactive) in [14], 42.3 µM (inactive) in [15] and 72.3 µM (inactive) in assay [16].
With `O/N=C/[C@H]1COC2(CCCCC2)O1`, the GI50 in assay [1], in [3], in [4], in assay [5], in assay [17] and in [6] was > 100 µM (inactive) throughout. In addition, the GI50 in assay [7] is > 100 µM (inactive); in assay [8] it was > 100 µM; in [9] it was > 100 µM (inactive); in [10], > 100 µM (inactive); in [18], > 100 µM (inactive); in [11], > 100 µM (inactive). Further, the GI50 in assay [12] was > 100 µM (inactive); in assay [13] it was 31.6 µM (inactive); in [19], > 100 µM (inactive); in assay [16] it was > 100 µM (inactive).
Take `CC1=N/C(=C\c2c(O)ccc3ccccc23)C(=O)O1`: the GI50 in assay [1], in assay [3], in assay [4], in [5], in [17] and in assay [20] was > 100 µM (inactive) in each case. Besides, the GI50 in [7] was > 100 µM (inactive); in assay [8], > 100 µM; in assay [9], > 100 µM (inactive); in [10], > 100 µM (inactive); in assay [11] it was > 100 µM (inactive); in assay [12] it was > 100 µM (inactive). Besides, the GI50 in assay [13], in assay [14], in [15] and in assay [16] was > 100 µM (inactive) throughout.
For `CCN(CC)c1ccc(/C=C/C(=O)c2cc(C(C)(C)C)c(O)c(C(C)(C)C)c2)cc1`, the GI50 in [1] was 3.3 µM (inactive); in assay [3], > 50.7 µM (inactive); in [4] it was 6.81 µM (inactive); in [5], 8.45 µM (inactive); in assay [17], 2.99 µM (inactive); in [20] it was 3.07 µM (inactive). Moreover, the GI50 in assay [6] was 4.38 µM (inactive); in [7], 15.9 µM (inactive); in assay [8], 21.1 µM; in [9], 3.85 µM (inactive); in assay [10] it was 4.84 µM (inactive); in [18], 3.21 µM (inactive). Moreover, the GI50 is 31.3 µM (inactive) in assay [11]; 5.26 µM (inactive) in assay [12]; > 100 µM (inactive) in assay [13]; 5.93 µM (inactive) in assay [19]; 16.3 µM (inactive) in assay [14]; 3.37 µM (inactive) in [15]. In addition, in assay [16], the GI50 is 4.13 µM (inactive).
Take `CCOC(=O)C1(C)CCCc2sc(N)c(C#N)c21` (stereo not drawn): the GI50 in assay [1], in assay [3], in [4], in assay [5], in assay [17] and in [7] was > 100 µM (inactive) throughout. Further, the GI50 in assay [8] is > 100 µM; in [10], > 100 µM (inactive); in assay [11], > 100 µM (inactive); in [12], > 100 µM (inactive); in [13], > 100 µM (inactive); in assay [19], > 100 µM (inactive). In addition, the GI50 in assay [14], in [15] and in [16] was > 100 µM (inactive) in each case.
As for `CCOC(=O)C1=C(C)OC(=O)[C@@]2(OC)C=C(Cl)[C@@]12C`, the GI50 in [1], in assay [3], in assay [4], in assay [5], in assay [17] and in assay [20] was > 100 µM (inactive) throughout. The GI50 was > 100 µM (inactive) in assay [6]; > 100 µM (inactive) in [7]; > 100 µM in assay [8]; > 100 µM (inactive) in assay [9]; > 100 µM (inactive) in assay [10]; > 100 µM (inactive) in [18]. The GI50 in assay [11] was > 100 µM (inactive); in [12], > 100 µM (inactive); in [13], > 100 µM (inactive); in assay [19], > 100 µM (inactive); in assay [14] it was > 100 µM (inactive); in assay [15] it was 33 µM (inactive). The GI50 in [16] was > 100 µM (inactive).
For the compound `O=c1cnc2cc3ccccc3cc2[nH]1`, the GI50 in assay [1], in assay [3], in assay [5], in assay [17], in [20] and in assay [6] was > 100 µM (inactive) throughout. Further, the GI50 in assay [7] was > 100 µM (inactive); in assay [8], > 100 µM; in assay [9], > 100 µM (inactive); in [10], > 100 µM (inactive); in assay [18], > 100 µM (inactive); in assay [11], > 100 µM (inactive). Further, the GI50 in assay [12] is > 100 µM (inactive); in assay [13] it was > 100 µM (inactive); in [19], > 100 µM (inactive); in assay [14], > 100 µM (inactive); in [15], > 100 µM (inactive); in assay [16], 1.57 µM (inactive).
Turning to `C[C@]12CCC(=O)C=C1CC[C@@H]1C2CC[C@@]2(C)C1CC[C@@H]2OC(=O)C12OC1CCC2=O` (stereo partly drawn), the GI50 in assay [1] is 15.1 µM (inactive); in [3] it was 17.4 µM (inactive); in assay [4], 18.3 µM (inactive); in [5], 24.4 µM (inactive); in assay [17], 18.7 µM (inactive); in assay [20] it was 10.7 µM (inactive). Further, the GI50 in assay [7] was 17.9 µM (inactive); in assay [8], 17 µM; in assay [9], 12.2 µM (inactive); in assay [10], 16.9 µM (inactive); in [11] it was 18 µM (inactive); in assay [12], 17.9 µM (inactive). Also, the GI50 in [13] is 19.8 µM (inactive); in assay [14] it was 20.3 µM (inactive); in [15] it was 6.9 µM (inactive); in [16], 15.5 µM (inactive).
For the compound `Clc1ccc(OCCSCCCCCCCCCCSCCOc2ccc(Cl)cc2)cc1`, the GI50 in [1], in assay [3], in assay [4], in assay [5], in assay [17] and in assay [20] was > 100 µM (inactive) throughout. Also, the GI50 in [7] is > 100 µM (inactive); in assay [8] it was > 100 µM; in assay [9] it was > 100 µM (inactive); in [10], > 100 µM (inactive); in assay [11], > 100 µM (inactive); in assay [12], > 100 µM (inactive). For the same compound, the GI50 in assay [13], in assay [14], in [15] and in assay [16] was > 100 µM (inactive) throughout.
With `C=C[C@@H](C)[C@H](NS(=O)(=O)c1ccc(C)cc1)C(=O)OCC`, the GI50 in [1] was 33.5 µM (inactive); in [3], 35.9 µM (inactive); in [4], 12.8 µM (inactive); in [5], 39.7 µM (inactive); in [17], 28.1 µM (inactive); in [20], 20.6 µM (inactive). Further, the GI50 in assay [6] is 41.3 µM (inactive); in assay [7] it was 40.2 µM (inactive); in assay [8], 31.3 µM; in assay [9] it was 28.2 µM (inactive); in assay [10], 40.3 µM (inactive); in assay [18], 21.4 µM (inactive). The GI50 in assay [11] was 48.5 µM (inactive); in assay [12] it was 26.2 µM (inactive); in assay [19] it was 19.7 µM (inactive); in assay [15] it was 57 µM (inactive); in assay [16], 30.8 µM (inactive).
Take `CCOC(=O)CCCSCCCC(=O)CCCSCCCC(=O)OCC`: the GI50 in assay [1], in assay [2], in assay [3], in assay [4], in [5] and in assay [17] was > 100 µM (inactive) in each case. Further, the GI50 in [20] is > 100 µM (inactive); in assay [6], > 100 µM (inactive); in [7] it was > 100 µM (inactive); in assay [8], > 100 µM; in [9], > 100 µM (inactive); in assay [10] it was > 100 µM (inactive). Besides, the GI50 in assay [18], in assay [12], in assay [13], in assay [14], in assay [15] and in assay [16] was > 100 µM (inactive) in each case.
On to `CO[C@H]1C[C@H](n2cc(C)c(=O)[nH]c2=O)O[C@@H]1CO`, for which the GI50 in assay [1], in assay [3], in [4], in assay [5], in assay [17] and in assay [6] was > 100 µM (inactive) throughout. Besides, the GI50 in assay [7] is > 100 µM (inactive); in assay [8] it was > 100 µM; in assay [9], > 100 µM (inactive); in assay [10] it was > 100 µM (inactive); in [18] it was > 100 µM (inactive); in assay [11], > 100 µM (inactive). The GI50 in assay [12], in assay [19], in assay [14], in assay [15] and in assay [16] was > 100 µM (inactive) each time.

Source of the values: ChEMBL document CHEMBL1201862, “PubChem BioAssay data set” (2004).
